Laboratory results published in US8030354B2, “Substituted biphenyl GPR40 modulators” (Amgen Inc., priority 2007, dated 2011).

biological target: GPR40 (Homo sapiens, UniProt O14842); experiment: Cell-based aequorin assay (CHO cells stably expressing GPR40 and aequorin); parameters: expressed in transfected cells; host or cells: CHO cells stably transfected with GPR40 and aequorin; conditions: activation of human GPR40, CHO cells, 0.01% HSA
Protocol: Briefly, the Aequorin assays were performed on doubly stable CHO cells expressing GPR40 and Aequorin DNA. […] The luminescence was recorded over a period of 20 seconds with a Microlumat luminometer (Berthold). […] The inositol phosphate assay was performed on an A9 cell line stably transfected with GPR40 (A9_GPR40). The cells were incubated with different concentrations of compounds and [^3H] inositol accumulation was measured after 1 hour.
Cell-based aequorin assays were employed to characterize the modulatory activity of compounds on the GPR40 signaling pathway. In an exemplary assay, CHO cells were stably transfected with both GPR40 and Aequorin (Euroscreen). Cells were detached from the tissue culture dish with 2 mL of trypsin (0.25%(w/v)). Trypsinization was halted with 28 mL of Hanks Buffered Salt Solution containing 20 mM Hepes (H/HBSS) and 0.01% fatty acid-free human serum albumin (HSA). Coelantrazine is added to 1 ug/mL, and the cells were incubated for 2 hours at room temperature. Compounds were dissolved in DMSO for preparation of 10 mM stock solutions. Compounds were diluted in H/HBSS containing 0.01% HSA. Serial dilutions of the test compounds were prepared to determine dose response.
Aequorin luminescence measurements were made using an EG&G Berthold 96-well luminometer, and the response was measured over a 20 second interval after cells and compounds were mixed. The maximum relative light units was plotted to determine dose response. The EC50 (effective concentration to reach 50% maximal response) was determined from the dose response plot.

Sequence of GPR40 (O14842 whole entry): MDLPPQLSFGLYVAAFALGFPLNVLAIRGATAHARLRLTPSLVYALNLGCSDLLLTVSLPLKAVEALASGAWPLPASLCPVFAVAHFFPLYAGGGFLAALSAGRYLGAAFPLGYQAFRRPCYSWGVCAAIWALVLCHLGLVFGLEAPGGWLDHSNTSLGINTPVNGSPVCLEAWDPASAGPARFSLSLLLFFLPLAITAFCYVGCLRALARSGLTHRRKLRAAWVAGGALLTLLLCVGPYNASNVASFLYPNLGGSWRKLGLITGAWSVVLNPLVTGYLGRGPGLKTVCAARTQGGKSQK

SMILES | EC50 [nM]
C=C(C)[C@@H](CC(=O)O)c1cccc(OCc2ccc(-c3cc(OC)ccc3F)c(C(C)(C)C)c2)c1 (single isomer, unassigned) [Example 48, (3R)-3-(3-(((2-(1,1-Dimethylethyl)-2′-fluoro-5′-(methyloxy)-1,1′-biphenyl-4-yl)methyl)oxy)phenyl)-4-methyl-4-pentenoic acid or (3S)-3-(3-(((2-(1,1-dimethylethyl)-2′-fluoro-5′-(methyloxy)-1,1′-biphenyl-4-yl)methyl)oxy)phenyl)-4-methyl-4-pentenoic acid] | 1000 to 10000
COc1ccc(F)c(-c2ccc(COc3cccc([C@@H](CC(=O)O)C(C)C)c3)cc2C(C)(C)C)c1 (single isomer, unassigned) [Example 52] | 1000 to 10000
CCCCOc1cc(COc2cccc([C@@H](CC(=O)O)C(C)C)c2)ccc1-c1cc(OC)ccc1F (single isomer, unassigned) [Example 53] | 1000 to 10000
C=CC[C@H](CC(=O)O)c1cccc(OCc2ccc(-c3cc(OC)ccc3F)c(OCCCC)c2)c1 (single isomer, unassigned) [Example 54, (3R)-3-(3-(((2-(Butyloxy)-2′-fluoro-5′-(methyloxy)-1,1′-biphenyl-4-yl)methyl)oxy)phenyl)-5-hexenoic acid or (3S)-3-(3-(((2-(butyloxy)-2′-fluoro-5′-(methyloxy)-1,1′-biphenyl-4-yl)methyl)oxy)phenyl)-5-hexenoic acid] | 1000 to 10000
COc1cccc(-c2ccc(COc3cccc([C@@H](CC(=O)O)C(C)C)c3)cc2C(C)(C)C)c1 (single isomer, unassigned) [Example 58, (3S)-3-(3-(((2-(1,1-Dimethylethyl)-3′-(methyloxy)-1,1′-biphenyl-4-yl)methyl)oxy)phenyl)-4-methylpentanoic acid or (3R)-3-(3-(((2-(1,1-dimethylethyl)-3′-(methyloxy)-1,1′-biphenyl-4-yl)methyl)oxy)phenyl)-4-methylpentanoic acid] | 1000 to 10000
COc1ccc(F)c(-c2ccc(COc3cccc(CC(C)C(=O)O)c3)cc2C2=CCCC2(C)C)c1 (single isomer, unassigned) [Example 62.1, (2R)-3-(3-(((2-(5,5-Dimethyl-1-cyclopenten-1-yl)-2′-fluoro-5′-(methyloxy)-1,1′-biphenyl-4-yl)methyl)oxy)phenyl)-2-methylpropanoic acid or (2S)-3-(3-(((2-(5,5-dimethyl-1-cyclopenten-1-yl)-2′-fluoro-5′-(methyloxy)-1,1′-biphenyl-4-yl)methyl)oxy)phenyl)-2-methylpropanoic acid] | 100 to 1000
COc1ccc(F)c(-c2ccc(COc3cccc(CC(C)C(=O)O)c3)cc2C2CCCC2(C)C)c1 (single isomer, unassigned) [Example 62.2, (2R)-3-(3-(((2-(2,2-Dimethylcyclopentyl)-2′-fluoro-5′-(methyloxy)-1,1′-biphenyl-4-yl)methyl)oxy)phenyl)-2-methylpropanoic acid or (2S)-3-(3-(((2-(2,2-dimethylcyclopentyl)-2′-fluoro-5′-(methyloxy)-1,1′-biphenyl-4-yl)methyl)oxy)phenyl)-2-methylpropanoic acid] | 100 to 1000
COc1ccc(F)c(-c2ccc(COc3cccc(C[C@H](C)C(=O)O)c3)cc2C2=CCCC2(C)C)c1 (single isomer, unassigned) [Example 63.1, (2S)-3-(3-(((2-(5,5-Dimethyl-1-cyclopenten-1-yl)-2′-fluoro-5′-(methyloxy)-1,1′-biphenyl-4-yl)methyl)oxy)phenyl)-2-methylpropanoic acid or (2R)-3-(3-(((2-(5,5-dimethyl-1-cyclopenten-1-yl)-2′-fluoro-5′-(methyloxy)-1,1′-biphenyl-4-yl)methyl)oxy)phenyl)-2-methylpropanoic acid] | 100 to 1000
COc1ccc(F)c(-c2ccc(COc3cccc(CC(C)C(=O)O)c3)cc2C2CCCC2(C)C)c1 (single isomer, unassigned) [Example 63.2, (2S)-3-(3-(((2-(2,2-Dimethylcyclopentyl)-2′-fluoro-5′-(methyloxy)-1,1′-biphenyl-4-yl)methyl)oxy)phenyl)-2-methylpropanoic acid or (2R)-3-(3-(((2-(2,2-dimethylcyclopentyl)-2′-fluoro-5′-(methyloxy)-1,1′-biphenyl-4-yl)methyl)oxy)phenyl)-2-methylpropanoic acid] | 100 to 1000
COc1ccc(F)c(-c2ccc(COc3cccc(C(C)CC(=O)O)c3)cc2OCC(C)(C)C)c1 (single isomer, unassigned) [Example 64.1, (3R)-3-(3-(((2-((2,2-Dimethylpropyl)oxy)-2′-fluoro-5′-(methyloxy)-1,1′-biphenyl-4-yl)methyl)oxy)phenyl)butanoic acid or (3S)-3-(3-(((2-((2,2-dimethylpropyl)oxy)-2′-fluoro-5′-(methyloxy)-1,1′-biphenyl-4-yl)methyl)oxy)phenyl)butanoic acid] | 100 to 1000
CCCCOc1cc(COc2cccc(C(C)CC(=O)O)c2)ccc1-c1cccc(SC)c1 (single isomer, unassigned) [Example 64.2, (3R)-3-(3-(((2-(Butyloxy)-3′-(methylsulfanyl)-1,1′-biphenyl-4-yl)methyl)oxy)phenyl)butanoic acid or (3S)-3-(3-(((2-(butyloxy)-3′-(methylsulfanyl)-1,1′-biphenyl-4-yl)methyl)oxy)phenyl)butanoic acid] | 1000 to 10000
COc1ccc(F)c(-c2cc(C)c(COc3cccc(C(C)CC(=O)O)c3)cc2C(C)(C)C)c1 (single isomer, unassigned) [Example 64.3, (3R)-3-(3-(((2-(1,1-Dimethylethyl)-2′-fluoro-5-methyl-5′-(methyloxy)-1,1′-biphenyl-4-yl)methyl)oxy)phenyl)butanoic acid or (3S)-3-(3-(((2-(1,1-dimethylethyl)-2′-fluoro-5-methyl-5′-(methyloxy)-1,1′-biphenyl-4-yl)methyl)oxy)phenyl)butanoic acid] | 1000 to 10000
CCC/C=C/c1cc(COc2cccc(C(C)CC(=O)O)c2)ccc1-c1cc(OC)ccc1F (single isomer, unassigned) [Example 64.8, (3R)-3-(3-(((2′-Fluoro-5′-(methyloxy)-2-((1E)-1-pentenyl)-1,1′-biphenyl-4-yl)methyl)oxy)phenyl)butanoic acid or (3S)-3-(3-(((2′-fluoro-5′-(methyloxy)-2-((1E)-1-pentenyl)-1,1′-biphenyl-4-yl)methyl)oxy)phenyl)butanoic acid] | 100 to 1000
COc1ccc(F)c(-c2ccc(COc3cccc(C(C)CC(=O)O)c3)cc2/C=C/C2CCCCC2)c1 (single isomer, unassigned) [Example 64.9, (3R)-3-(3-(((2-((E)-2-Cyclohexylethenyl)-2′-fluoro-5′-(methyloxy)-1,1′-biphenyl-4-yl)methyl)oxy)phenyl)butanoic acid or (3S)-3-(3-(((2-((E)-2-cyclohexylethenyl)-2′-fluoro-5′-(methyloxy)-1,1′-biphenyl-4-yl)methyl)oxy)phenyl)butanoic acid] | 100 to 1000
CSc1cccc(-c2ccc(COc3cccc(C(C)CC(=O)O)c3)cc2C(C)(C)C)c1 (single isomer, unassigned) [Example 64.23, (3R)-3-(3-(((2-(1,1-Dimethylethyl)-3′-(methylsulfanyl)-1,1′-biphenyl-4-yl)methyl)oxy)phenyl)butanoic acid or (3S)-3-(3-(((2-(1,1-dimethylethyl)-3′-(methylsulfanyl)-1,1′-biphenyl-4-yl)methyl)oxy)phenyl)butanoic acid] | 1000 to 10000
CCOc1cccc(-c2ccc(COc3cccc(C(C)CC(=O)O)c3)cc2C(C)(C)C)c1 (single isomer, unassigned) [Example 64.24, (3R)-3-(3-(((2-(1,1-Dimethylethyl)-3′-(ethyloxy)-1,1′-biphenyl-4-yl)methyl)oxy)phenyl)butanoic acid or (3S)-3-(3-(((2-(1,1-dimethylethyl)-3′-(ethyloxy)-1,1′-biphenyl-4-yl)methyl)oxy)phenyl)butanoic acid] | 1000 to 10000
COc1ccc(F)c(-c2ccc(C(C)Oc3cccc(C(C)CC(=O)O)c3)cc2C(C)(C)C)c1 (single isomer, unassigned) [Example 64.25] | 1000 to 10000
CCCCOc1cc(COc2cccc(C(C)CC(=O)O)c2)ccc1-c1cccc(F)c1 (single isomer, unassigned) [Example 64.26, (3R)-3-(3-(((2-(butyloxy)-3′-fluoro-1,1′-biphenyl-4-yl)methyl)oxy)phenyl)butanoic acid or (3S)-3-(3-(((2-(butyloxy)-3′-fluoro-1,1′-biphenyl-4-yl)methyl)oxy)phenyl)butanoic acid] | 1000 to 10000
CCCCOc1cc(COc2cccc(C(CC)CC(=O)O)c2)ccc1-c1cccc(OC)c1 (single isomer, unassigned) [Example 65.2, (3R)-3-(3-(((2-(Butyloxy)-3′-(methyloxy)-1,1′-biphenyl-4-yl)methyl)oxy)phenyl)pentanoic acid or (3S)-3-(3-(((2-(butyloxy)-3′-(methyloxy)-1,1′-biphenyl-4-yl)methyl)oxy)phenyl)pentanoic acid] | 100 to 1000
